How the values were obtained:
C5a receptor [1] = target: T1, C5a receptor (Homo sapiens, UniProt P21730); assay: HWB oxidative burst assay (C5a-induced, luminol chemiluminescence); type: cell-based
T1 construct: endogenous in cells; host or cells: leukocytes/granulocytes in freshly drawn whole blood of healthy volunteers
T1 sequence (P21730 1-350): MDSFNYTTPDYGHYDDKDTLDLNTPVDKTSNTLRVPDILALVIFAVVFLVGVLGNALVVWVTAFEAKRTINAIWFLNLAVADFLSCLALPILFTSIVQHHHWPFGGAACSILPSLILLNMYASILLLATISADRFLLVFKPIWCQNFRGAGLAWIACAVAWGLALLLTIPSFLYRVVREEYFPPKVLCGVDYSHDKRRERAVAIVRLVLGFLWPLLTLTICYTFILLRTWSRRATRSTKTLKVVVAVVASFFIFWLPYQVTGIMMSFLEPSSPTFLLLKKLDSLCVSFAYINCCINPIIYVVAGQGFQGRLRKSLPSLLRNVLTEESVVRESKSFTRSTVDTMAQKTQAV
Protocol: Inhibition of oxidative burst activity was determined in HWB primed with TNF-α and stimulated with C5a. C5a-induced oxidative burst response (generation of reactive oxygen species) was then detected in the presence of luminol as a chemiluminescent signal.
On the day of assay, HWB was collected from a healthy, non-medicated volunteer into tubes containing 3.8% sodium citrate (final sodium citrate concentration in HWB is 0.38%) and stored in a 37° C. water bath until use (no longer than 60 minutes).
To start the assay, TNF-α was added to HWB to a final concentration of 1.0 nM and 68 μL of this HWB/TNF-α mix was transferred to each well of a 384-well white Optiplate (assay plate). 4.0 μL of various concentrations of test agent were then added to the assay plate and mixed twice gently by aspirating up and down. The assay plate was then placed on a thermoshaker (JITTERBUG-4) and incubated at 37° C. (without shaking). After 60 minutes, C5a (Complement Technology) prepared in luminol (Sigma) was added to the assay plate and mixed twice gently by aspirating up and down. The plate was then placed in a ViewLux 1430 Microplate Imager (Perkin Elmer). After 5 minutes, oxidative burst activity was determined with the ViewLux by measuring luminol-enhanced whole blood chemiluminescence. Final assay conditions were 1.5 mM HEPES pH 7.5, 0.015% BSA, 15% HBSS, 0.85 ng/mL TNFα, 1.0 mM Luminol, C5a 20 nM, 76.5% HWB, 0.15% DMSO and various concentrations of test agent.
The percent (%) effect at each concentration of test agent was then calculated based on and relative to the amount of signal that was produced by positive (i.e. full inhibition of C5a induced oxidative burst) and negative (i.e. completely uninhibited C5a induced oxidative burst) control wells contained within each assay plate. The concentration and % effect values for test agents were plotted and the concentration of test agent required for 50% effect (IC50) was determined with a four-parameter logistic dose response equation (BioBook; IDBS). Kb (nM) was then calculated (BioBook; IDBS) using the equation described by Leff and Dougal (TIPS 1993 14:110-112).

C5a receptor [2] = target: T1, C5a receptor; assay: HWB CD11b expression assay (C5a-challenged granulocytes, flow cytometry); type: cell-based
Protocol: HWB was collected from healthy, non-medicated volunteers into BD Vacutainer® blood collection tubes with K2EDTA as an anticoagulant. HWB was aliquoted (85 μL/well) in 96-well, deep-well, V-bottom plates and incubated at 37° C. for 30 minutes. Test compounds (5 μL/well) were added to HWB and incubated at 37° C. for 30 minutes. Anti-human CD11b antibody conjugated with APC (BD Biosciences) was added to HWB (5 μL/well) and incubated at 37° C. for additional 30 minutes. HWB was then challenged with human C5a (final 1 nM) for 30 minutes at 37° C. Samples were treated with warm 1× Lyse/Fix buffer (BD Biosciences) to terminate activation and further incubated at 37° C. for 20 minutes to lyse red blood cells. Assay plates were centrifuged at 300×g for 5 minutes, supernatant was aspirated, and cells were washed once with PBS containing 0.5% FBS. Washed cells were resuspended in PBS containing 0.5% FBS and subjected to flow cytometric analysis using an LSRFortessa equipped with a HTS plate loader (BD Biosciences). The granulocyte population was gated for analysis of MF of CD11b staining using FACSDiva version 6.2 (BD Biosciences). Data from 11 compound concentrations (singlicate at each concentration) was normalized as a percentage of control based on the formula:
% of Control=100×(A−B)/(C−B)
where A is MF from wells containing test compound and C5a, B is MF from wells without C5a (background MF from unstimulated samples) and C is MF from wells containing only C5a (maximum MF). Inhibition curves and IC50 values (test compound concentrations which produce 50% inhibition) were determined using the Prism version 5 software (GraphPad). HWB was also stimulated with 11 different concentrations of C5a to construct a responsive curve and to obtain EC50 value (the concentration of C5a that gives half-maximal response) and curve slope using the Prism version 5 software. Kb (nM) was then calculated using the equation described by Leff and Dougal (TIPS 1993 14:110-112).

| SMILES | Kb (C5a receptor [1]) [nM] | Kb (C5a receptor [2]) [nM] | Kb (C5a receptor [1]; human whole blood primed with TNF-α, stimulated with C5a 20 nM, Kb calculated from IC50 (Leff and Dougal), read-out: Oxidative burst, Kb) [nM] | Kb (C5a receptor [2]; human whole blood challenged with human C5a 1 nM, granulocyte CD11b mean fluorescence, Kb calculated from IC50 (Leff and Dougal), read-out: CD11b, Kb) [nM] |
| --- | --- | --- | --- | --- |
| N=C(N)NCCC[C@@H]1NC(=O)[C@H](Cc2c[nH]c3ccccc23)NC(=O)[C@@H](C[C@H]2CC[C@@H](O)CC2)NC(=O)[C@@H]2C[C@@H](O)CN2C(=O)[C@@H](NC(=O)[C@H](Cc2ccccc2)NCC(=O)O)CCCNC1=O [Example 1, ((S)-1-(((3R,6S,9S,15S,19R,20aS)-6-((1H-indol-3-yl)methyl)-9-(3-guanidinopropyl)-19-hydroxy-3-(((1s,4S)-4-hydroxycyclohexyl)methyl)-1,4,7,10,16-pentaoxoicosahydropyrrolo[1,2-a][1,4,7,10,13]pentaazacyclooctadecin-15-yl)amino)-1-oxo-3-phenylpropan-2-yl)glycine] | 1.6 | 13.1 |  |  |
| N=C(N)NCCC[C@@H]1NC(=O)[C@H](Cc2c[nH]c3ccccc23)NC(=O)[C@@H](C[C@H]2CC[C@@H](O)CC2)NC(=O)[C@@H]2C[C@@H](OCC(=O)O)CN2C(=O)[C@@H](NC(=O)[C@H](Cc2ccccc2)NCC(=O)O)CCCNC1=O [Example 2, 2-(((3R,6S,9S,15S,19R,20aS)-6-((1H-indol-3-yl)methyl)-15-((S)-2-((carboxymethyl)amino)-3-phenylpropanamido)-9-(3-guanidinopropyl)-3-(((1s,4S)-4-hydroxycyclohexyl)methyl)-1,4,7,10,16-pentaoxoicosahydropyrrolo[1,2-a][1,4,7,10,13]pentaazacyclooctadecin-19-yl)oxy)acetic Acid] | 3 | 28.8 |  |  |
| Cc1cnn(C[C@@H]2NC(=O)[C@@H](C[C@H]3CC[C@@H](O)CC3)NC(=O)[C@@H]3C[C@@H](O)CN3C(=O)[C@@H](NC(=O)[C@H](Cc3ccccc3)NCC(=O)O)CCCNC(=O)[C@H](CCCNC(=N)N)NC2=O)c1 [Example 3, ((S)-1-(((3R,6S,9S,15S,19R,20aS)-9-(3-guanidinopropyl)-19-hydroxy-3-(((1s,4S)-4-hydroxycyclohexyl)methyl)-6-((4-methyl-1H-pyrazol-1-yl)methyl)-1,4,7,10,16-pentaoxoicosahydropyrrolo[1,2-a][1,4,7,10,13]pentaazacyclooctadecin-15-yl)amino)-1-oxo-3-phenylpropan-2-yl)glycine] | 21.6 | 212 |  |  |
| COc1ccc2[nH]cc(C[C@@H]3NC(=O)[C@@H](C[C@H]4CC[C@@H](O)CC4)NC(=O)[C@@H]4C[C@@H](O)CN4C(=O)[C@@H](NC(=O)[C@H](Cc4ccccc4)NCC(=O)O)CCCNC(=O)[C@H](CCCNC(=N)N)NC3=O)c2c1 [Example 4, ((S)-1-(((3R,6S,9S,15S,19R,20aS)-9-(3-guanidinopropyl)-19-hydroxy-3-(((1s,4S)-4-hydroxycyclohexyl)methyl)-6-((5-methoxy-1H-indol-3-yl)methyl)-1,4,7,10,16-pentaoxoicosahydropyrrolo[1,2-a][1,4,7,10,13]pentaazacyclooctadecin-15-yl)amino)-1-oxo-3-phenylpropan-2-yl)glycine] | 3 | 53.8 |  |  |
| N=C(N)NCCC[C@@H]1NC(=O)[C@H](Cc2c[nH]c3ncccc23)NC(=O)[C@@H](C[C@H]2CC[C@@H](O)CC2)NC(=O)[C@@H]2CCCN2C(=O)[C@@H](NC(=O)[C@H](Cc2ccccc2)NCC(=O)O)CCCNC1=O [Example 5, ((S)-1-(((3R,6S,9S,15S,20aS)-6-((1H-pyrrolo[2,3-b]pyridin-3-yl)methyl)-9-(3-guanidinopropyl)-3-(((1s,4S)-4-hydroxycyclohexyl)methyl)-1,4,7,10,16-pentaoxoicosahydropyrrolo[1,2-a][1,4,7,10,13]pentaazacyclooctadecin-15-yl)amino)-1-oxo-3-phenylpropan-2-yl)glycine] |  |  | 27.3 | 300 |
| N=C(N)NCCC[C@@H]1NC(=O)[C@H](Cc2c[nH]c3ncccc23)NC(=O)[C@@H](C[C@H]2CC[C@@H](O)CC2)NC(=O)[C@@H]2C[C@@H](O)CN2C(=O)[C@@H](NC(=O)[C@H](Cc2ccccc2)NCC(=O)O)CCCNC1=O [Example 6, ((S)-1-(((3R,6S,9S,15S,19R,20aS)-6-((1H-pyrrolo[2,3-b]pyridin-3-yl)methyl)-9-(3-guanidinopropyl)-19-hydroxy-3-(((1s,4S)-4-hydroxycyclohexyl)methyl)-1,4,7,10,16-pentaoxoicosahydropyrrolo[1,2-a][1,4,7,10,13]pentaazacyclooctadecin-15-yl)amino)-1-oxo-3-phenylpropan-2-yl)glycine] | 68.1 | 460 |  |  |
| N=C(N)NCCC[C@@H]1NC(=O)[C@H](Cc2c[nH]c3ccccc23)NC(=O)[C@@H](C[C@H]2CC[C@@H](O)CC2)NC(=O)[C@@H]2C[C@H](N)CN2C(=O)[C@@H](NC(=O)[C@H](Cc2ccccc2)NCC(=O)O)CCCNC1=O [Example 7, ((S)-1-(((3R,6S,9S,15S,19S,20aS)-6-((1H-indol-3-yl)methyl)-19-amino-9-(3-guanidinopropyl)-3-(((1s,4S)-4-hydroxycyclohexyl)methyl)-1,4,7,10,16-pentaoxoicosahydropyrrolo[1,2-a][1,4,7,10,13]pentaazacyclooctadecin-15-yl)amino)-1-oxo-3-phenylpropan-2-yl)glycine] | 1.8 | 10.9 |  |  |
| N=C(N)NCCC[C@@H]1NC(=O)[C@H](Cc2c[nH]c3ccccc23)NC(=O)[C@@H](C[C@H]2CC[C@@H](O)CC2)NC(=O)[C@@H]2C[C@@H](N)CN2C(=O)[C@@H](NC(=O)[C@H](Cc2ccccc2)NCC(=O)O)CCCNC1=O [Example 8, ((S)-1-(((3R,6S,9S,15S,19R,20aS)-6-((1H-indol-3-yl)methyl)-19-amino-9-(3-guanidinopropyl)-3-(((1s,4S)-4-hydroxycyclohexyl)methyl)-1,4,7,10,16-pentaoxoicosahydropyrrolo[1,2-a][1,4,7,10,13]pentaazacyclooctadecin-15-yl)amino)-1-oxo-3-phenylpropan-2-yl)glycine] | 4 | 19.8 |  |  |
| CC(=O)N[C@@H]1C[C@H]2C(=O)N[C@H](C[C@H]3CC[C@@H](O)CC3)C(=O)N[C@@H](Cc3c[nH]c4ccccc34)C(=O)N[C@@H](CCCNC(=N)N)C(=O)NCCC[C@H](NC(=O)[C@H](Cc3ccccc3)NCC(=O)O)C(=O)N2C1 [Example 9, ((S)-1-(((3R,6S,9S,15S,19R,20aS)-6-((1H-indol-3-yl)methyl)-19-acetamido-9-(3-guanidinopropyl)-3-(((1s,4S)-4-hydroxycyclohexyl)methyl)-1,4,7,10,16-pentaoxoicosahydropyrrolo[1,2-a][1,4,7,10,13]pentaazacyclooctadecin-15-yl)amino)-1-oxo-3-phenylpropan-2-yl)glycine] | 1 | 32.6 |  |  |

— patent publication US20190270778A1, “Cyclic Peptides As C5a Receptor Antagonists” (priority 2016, published 2019)
